Earlier results on 1 molecule are cited in patent US20140284468A1, “Cancer patient selection for administration of therapeutic agents using mass spectral analysis of blood-based samples” (Biodesix, Inc., priority 2010, published 2014).

The data set deals with NSCLC, SCCHN, and CRC patients. Particulars: VeriStrat poor subgroup, monotherapy versus placebo.

As for `C#Cc1cccc(Nc2ncnc3cc(OCCOC)c(OCCOC)cc23)c1` [erlotinib], the treatment benefit entry was “essentially equivalent to treatment with placebo”.
